Reference: patent US20260258083A1, “T Cell Engager Masking Molecules” (AMGEN INC., priority 2023, published 2026)
Where no end group is shown, it is not given here. [ ]: non-standard residue; d: D form. pGlu = O=C1CC[C@@H](C(=O)O)N1; PEG = not defined here

Tests used:
[1] = tested on: FLT3xCD3 TCE; experiment: SPR solution assay of competition binding with TCE
Description: (§1) SPR Solution Assay of Competition Binding with TCE
(§2) As it can be derived from table 6,
(§3) A high affinity SPR ‘capture’ surface was first constructed to facilitate the SPR analysis of pre-equilibrated peptide analyte+TCE solutions. Briefly, a Cytiva CM5 chip was functionalized with PDEA (2-(2-pyridinyldithio)ethaneamine) under standard EDC/NHS coupling conditions where the PDEA is dissolved to 20 mM 2-(2-pyridinyldithio)ethaneamine and 1 M NaCl in 0.1 M sodium acetate pH 4.3, 6 peptide including p[…] (ID 14974, SEQ ID NO 304) were tested:
(§4) Respective peptide was dissolved to between 50 and 100-ug/mL for injection over the activated CM5 surface in PBST, pH 6.5, and coupling times were optimized to yield the desired surface density (~300RU).
(§5) For the binding assessment, Individual binding isotherms were constructed by titrating the respective peptide of interest into a fixed concentration of TCE-containing solution in PBST. At least 4 hrs equilibration time were allotted (r.t.) prior to analysis by SPR. For the analysis, a calibration curve was first constructed of the TCE analyte being assessed. For analysis of the TCE+peptide mixtures, the samples were injected (10 uL/min) over the previously prepared capture surface for 90 seconds, where the SPR response (RU) was recorded at the end of the injection and referenced to the previously prepared standard curve to derive an estimate of the ‘free’ TCE concentration in the presence of peptide analyte. The ‘free’ TCE concentration measured was plotted as a function of log peptide concentration and fit using non-linear regression analysis to a 4 parameter logistic function to derive an IC50.

[2] = tested on: DLL3xCD3 TCE SEQ ID NO 104; experiment: SPR assay of immobilized peptides binding with TCE; conditions: immobilized peptide, Kinetic 1:1 Binding
DLL3xCD3 TCE SEQ ID NO 104, sequence (as listed by the source): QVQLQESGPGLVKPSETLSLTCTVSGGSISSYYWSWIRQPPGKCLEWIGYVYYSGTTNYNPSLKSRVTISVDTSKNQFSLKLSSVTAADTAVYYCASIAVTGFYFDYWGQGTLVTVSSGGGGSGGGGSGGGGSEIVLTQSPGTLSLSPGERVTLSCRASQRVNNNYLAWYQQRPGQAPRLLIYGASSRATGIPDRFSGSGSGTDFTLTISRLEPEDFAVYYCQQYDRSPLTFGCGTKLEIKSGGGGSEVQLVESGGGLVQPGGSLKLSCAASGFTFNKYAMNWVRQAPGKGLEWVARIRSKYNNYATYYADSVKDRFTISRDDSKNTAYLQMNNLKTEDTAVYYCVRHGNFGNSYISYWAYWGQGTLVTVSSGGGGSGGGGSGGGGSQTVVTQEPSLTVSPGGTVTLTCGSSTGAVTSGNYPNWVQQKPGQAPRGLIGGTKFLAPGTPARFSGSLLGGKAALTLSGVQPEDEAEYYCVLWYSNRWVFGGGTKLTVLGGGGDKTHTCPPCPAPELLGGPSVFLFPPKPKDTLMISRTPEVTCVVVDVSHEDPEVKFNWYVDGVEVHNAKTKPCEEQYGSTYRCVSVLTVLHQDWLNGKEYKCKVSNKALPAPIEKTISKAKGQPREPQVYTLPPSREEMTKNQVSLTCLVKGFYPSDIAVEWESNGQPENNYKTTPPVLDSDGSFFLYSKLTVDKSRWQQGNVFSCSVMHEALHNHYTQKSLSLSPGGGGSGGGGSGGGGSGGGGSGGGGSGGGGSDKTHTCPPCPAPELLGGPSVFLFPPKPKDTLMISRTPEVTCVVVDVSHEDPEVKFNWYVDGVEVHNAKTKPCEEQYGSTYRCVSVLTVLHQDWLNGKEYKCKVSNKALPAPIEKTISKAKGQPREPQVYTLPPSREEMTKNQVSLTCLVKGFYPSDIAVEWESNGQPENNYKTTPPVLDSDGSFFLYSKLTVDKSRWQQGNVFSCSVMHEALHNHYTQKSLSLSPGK
Description: (§6) Example 14: SPR Assay of Immobilized Peptides Binding with TCE
(§7) A cytiva CM5 chip was first functionalized with PDEA (2-(2pyridinyldithio)ethaneamine) under standard ((1-ethyl-3-(3-dimethylaminopropyl)carbodiimide)/(N-hydroxysuccinimide) EDC/NHS coupling conditions where the PDEA is dissolved to 20 mM and 1 M NaCl in 0.1 M sodium acetate pH 4.3. Binding peptides were dissolved to 50- or 100-ug/mL respectively in PBST, pH 6.5, and coupling times were optimized to yield the desired surface density.

[3] = tested on: FLT3xCD3 TCE SEQ ID NO 93; experiment: SPR assay of immobilized peptides binding with TCE; conditions: immobilized peptide, Kinetic 1:1 Binding
FLT3xCD3 TCE SEQ ID NO 93, sequence (as listed by the source): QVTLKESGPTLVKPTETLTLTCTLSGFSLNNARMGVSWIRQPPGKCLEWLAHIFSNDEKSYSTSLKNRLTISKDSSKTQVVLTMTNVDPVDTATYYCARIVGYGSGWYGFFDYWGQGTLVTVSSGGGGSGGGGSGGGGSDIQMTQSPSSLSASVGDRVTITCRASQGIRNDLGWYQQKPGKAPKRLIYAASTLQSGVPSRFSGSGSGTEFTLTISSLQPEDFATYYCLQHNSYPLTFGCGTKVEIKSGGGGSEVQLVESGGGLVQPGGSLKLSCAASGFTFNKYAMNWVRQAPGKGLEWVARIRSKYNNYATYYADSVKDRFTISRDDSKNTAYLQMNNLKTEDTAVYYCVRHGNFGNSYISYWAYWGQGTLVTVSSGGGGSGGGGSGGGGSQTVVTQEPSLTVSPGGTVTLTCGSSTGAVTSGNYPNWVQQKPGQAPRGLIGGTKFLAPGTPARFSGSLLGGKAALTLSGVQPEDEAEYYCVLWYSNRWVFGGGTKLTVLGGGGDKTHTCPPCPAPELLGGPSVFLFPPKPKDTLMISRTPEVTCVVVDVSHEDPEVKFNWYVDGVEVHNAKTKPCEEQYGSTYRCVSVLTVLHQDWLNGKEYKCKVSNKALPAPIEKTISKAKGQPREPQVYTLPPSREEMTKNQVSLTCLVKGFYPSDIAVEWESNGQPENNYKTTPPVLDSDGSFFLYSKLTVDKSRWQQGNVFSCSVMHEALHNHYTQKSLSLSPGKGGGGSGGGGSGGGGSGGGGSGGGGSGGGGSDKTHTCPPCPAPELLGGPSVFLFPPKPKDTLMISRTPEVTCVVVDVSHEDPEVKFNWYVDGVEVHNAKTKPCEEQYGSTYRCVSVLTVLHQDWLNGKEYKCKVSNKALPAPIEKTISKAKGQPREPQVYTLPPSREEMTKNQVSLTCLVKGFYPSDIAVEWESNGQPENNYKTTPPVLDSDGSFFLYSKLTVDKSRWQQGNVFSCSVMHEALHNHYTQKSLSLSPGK
Description: as §6, §7

[4] = tested on: Steap 1xCD3 TCE SEQ ID NO 373 + 374 + 375; experiment: SPR assay of immobilized peptides binding with TCE; conditions: immobilized peptide, Kinetic 1:1 Binding
Steap 1xCD3 TCE SEQ ID NO 373 + 374 + 375, sequence (as listed by the source): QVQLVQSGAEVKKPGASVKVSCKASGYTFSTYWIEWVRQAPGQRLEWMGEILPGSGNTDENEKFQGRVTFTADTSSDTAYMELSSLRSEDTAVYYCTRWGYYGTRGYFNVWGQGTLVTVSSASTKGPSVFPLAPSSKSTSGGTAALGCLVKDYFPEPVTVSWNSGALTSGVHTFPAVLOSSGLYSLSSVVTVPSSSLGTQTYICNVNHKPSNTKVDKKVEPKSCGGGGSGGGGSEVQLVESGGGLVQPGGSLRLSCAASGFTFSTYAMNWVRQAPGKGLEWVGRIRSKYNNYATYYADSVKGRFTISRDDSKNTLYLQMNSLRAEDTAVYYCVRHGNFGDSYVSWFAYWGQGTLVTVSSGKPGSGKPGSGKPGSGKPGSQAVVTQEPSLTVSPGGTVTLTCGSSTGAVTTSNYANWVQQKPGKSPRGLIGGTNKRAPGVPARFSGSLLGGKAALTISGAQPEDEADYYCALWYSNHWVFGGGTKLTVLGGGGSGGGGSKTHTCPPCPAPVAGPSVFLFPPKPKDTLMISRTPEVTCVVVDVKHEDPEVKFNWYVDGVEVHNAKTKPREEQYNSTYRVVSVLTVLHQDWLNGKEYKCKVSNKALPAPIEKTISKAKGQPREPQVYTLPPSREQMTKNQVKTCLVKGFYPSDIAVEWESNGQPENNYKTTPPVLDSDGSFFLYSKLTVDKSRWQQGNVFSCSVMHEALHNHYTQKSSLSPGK
Steap 1xCD3 TCE SEQ ID NO 373 + 374 + 375, sequence (as listed by the source partner): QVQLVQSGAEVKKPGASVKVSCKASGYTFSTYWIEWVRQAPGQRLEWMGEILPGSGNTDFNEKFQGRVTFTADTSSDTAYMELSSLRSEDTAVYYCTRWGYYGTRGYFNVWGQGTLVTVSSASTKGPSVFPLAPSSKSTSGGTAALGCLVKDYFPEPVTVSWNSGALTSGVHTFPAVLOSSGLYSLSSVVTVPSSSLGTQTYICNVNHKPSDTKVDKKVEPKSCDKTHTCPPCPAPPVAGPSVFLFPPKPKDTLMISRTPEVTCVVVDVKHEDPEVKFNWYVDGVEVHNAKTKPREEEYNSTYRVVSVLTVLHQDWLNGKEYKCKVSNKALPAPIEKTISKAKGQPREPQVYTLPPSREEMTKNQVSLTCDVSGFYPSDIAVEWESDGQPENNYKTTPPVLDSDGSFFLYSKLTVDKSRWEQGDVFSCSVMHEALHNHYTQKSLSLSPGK
Steap 1xCD3 TCE SEQ ID NO 373 + 374 + 375, sequence (as listed by the source partner): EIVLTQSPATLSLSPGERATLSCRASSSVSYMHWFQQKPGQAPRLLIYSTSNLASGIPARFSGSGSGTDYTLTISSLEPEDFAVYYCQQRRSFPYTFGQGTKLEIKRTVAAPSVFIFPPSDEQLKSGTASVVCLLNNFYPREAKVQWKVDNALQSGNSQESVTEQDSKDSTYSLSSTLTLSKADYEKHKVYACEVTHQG
Description: as §6, §7

[5] = tested on: FLT3×CD3 TCE (SEQ ID NO: 93); experiment: Association kinetics by KinExA (Table 5); assay type: binding; conditions: KinExA, FLT3×CD3 TCE
Description: • 1. Preparation of NHS-activated sepharose fast-flow beads: • 2. Fast flow sepharose suspension in 100% IPA, washed twice with milliQ H20, mild centrifugation to pool beads in between wash steps. • 3. Equilibrated in 0.15 M NaBO3, pH=8.5 buffer • 4. Added 80 mM PDEA to activate the resin for thiol exchange, 10 mins, r.t. • 5. Equilibrated resin with Hepes Buffered Saline-P (0.01 M HEPES pH 7.4, 0.15 M NaCl, 0.005% v/v Surfactant P2), pH 7.4 binding buffer • 6. Added 30 μg/mL of binding peptide, […] (SEQ ID NO; 297) or pGlu-[…] (SEQ ID NO: 300), reaction for 1 hr to functionalize resin. • 7. Quench with 10 mM L-Cys for 1 hour. • 8. Constant Binding Partner was FLT3×CD3 TCE (SEQ ID NO: 93), MW 105720, 3.2 mg/mL 31.21 uM was diluted to 333 pM and the pGlu-[…] peptide or pGlu-[…]-PEG (Pep-PEG v2) were titrated from 1 uM or 400 nM down to 2.3 pM concentrations relative to effective peptide molarity.
Association Kinetics by KinExA

[6] = C57BL/6 mice, single dose, non-linear one-phase decay fitting
Source text: Example 4: TCE Masking Molecule in PK Mouse Study
To further understand the in vivo behavior of the pyro-Glu containing dimeric p-[…]

[7] = tested on: CD20 TCE; experiment: CD20 TCE + CD3ε PepPOL, v2 PK/PD study 157130 (Example 10); assay type: in vivo, cynomolgus monkeys
Description: Example 10: Cynomolgus Study CD20 TCE (0.010 mg/kg)+CD3ε PepPOL, v2 (+25× (0.016 mg/kg), +250× (0.16 mg/kg) Co-Administration in Cynomolgus Monkeys
PK/PD study 157130 was an exploratory dose-ranging study conducted in cynomolgus monkeys aimed to establish activity of a ‘high affinity’ CD3ε PepPOL, v2 when co-administered with CD20 TCE. Primary study endpoints included: cytokine release, CD20+ B cell lysis, T cell activation, and clinical chemistry end points typically associated with CRS (e.g., CRP). CD20 TCE was dosed at 10 ug/kg alone, or in combination with CD3ε PepPOL, v2 at 0.016 mg/kg (25× molar excess CD3ε peptide), or 0.160 mg/kg (250× molar excess CD3ε peptide). A summary of the results is described below.
Serum cytokines MCP-1, IL-6, TNFα, IFNγ, and IL-2 were assessed by multiplex sandwich immunoassay at multiple time points from 0-168 hours post dose.

[8] = 2nd mouse PK study, IV bolus (Example 3); assay type: in vivo; conditions: BL/6 mice, IV bolus 5 mg/kg, plasma
Description: Example 3: 2nd Mouse PK Study
A second PK study was conducted in BL/6 mice to evaluate the plasma pharmacokinetics of the masking peptide in 8-arm (octavalent), 40 kDa PEG form. Both CD3ε PepPOL, v1 (40 kDa) and CD3ε PepPOL, v1 (20 kDa) (see Table 6 for sequences) were administered to mice by IV bolus at 5 mg/kg dose level and the results are shown in Fig. XX. […] The terminal elimination half-lives were estimated to be between 90 min and 120 min for the 20 kDa or 40 kDa CD3ε PepPOL, v1 forms, respectively.

[9] = tested on: muCD19 TCE; experiment: muCD19 TCE + CD3ε PepPOL, v1 co-administration pilot study, cytokines and CD19+ B cell depletion (Example 6); assay type: in vivo, huCD3ε TCR KI mice; conditions: ≥1000× molar overage with 100 μg/kg muCD19 TCE
Description: Example 6: Study muCD19 TCE+CD3ε PepPOL, v1 Co-Administration in huCD3ε TCR KI Mouse Model. 100 ug/kg IV Dose Murine Anti-muCD19 TCE Investigated >2300X
An initial pilot study in huCD3ε TCR KI mice was conducted to establish the desired PD effect with CD3ε PepPol v1. Here, CD3ε PepPol, v1 was co-administered at ≥1000× molar overage (peptide:TCE) with 100 μg/kg muCD19 TCE.

[10] = Mouse pharmacokinetic study, IV (Example 2); conditions: BL/6 mice, IV, 0.82 or 8.2 mg/kg, plasma total intact peptide
Description: Example 2: Mouse Pharmacokinetic Study to Evaluate In Vivo PK
The 4-arm 20 kDa PepPOL conjugate was dosed by IV administration to BL/6 mice at 0.82 or 8.2 mg/kg dose levels. […] The PK profiles for each peptide were evaluated by quantifying plasma concentrations of total intact peptide material over time (see methods).

[11] = tested on: anti-CD3ε paratope of a CD3ε binding domain of a TCE; experiment: Affinity class of the binding peptide of the masking molecule
Source text: The exact value may vary with the respective TCE. However, the […]

[12] = tested on: STEAP1×CD3e heterodimeric TCE; experiment: T cell dependent cellular cytotoxicity (TDCC) assay, inhibition of TCE cytotoxicity; assay type: cell-based; conditions: STEAP1×CD3, CLDN6×CD3 and DLL3×CD3 TCE; PBMC E:T 10:1, 48 hours
Description: Example 12: In Vitro Cytotoxicity and Cytokine Release Inhibition by Binding Peptides
In vitro potency of CD3e pepPEG was indirectly assessed by measuring in vitro activity of T cell engager (TCE) using T cell dependent cellular cytotoxicity (TDCC) assay. […] Cytokine production was assessed in supernatants from TDCC assays using electro-chemiluminescence assays (MesoScale Discovery).

[13] = molecular target: STEAP1xCD3 TCE; experiment: SPR solution assay of competition binding with TCE
Description: as §1, §2, §3, §4, §5

[14] = tested on: CDH3-CD3-MSLN-CD3 TCE (SEQ ID NO 255); experiment: SPR assay of immobilized peptides binding with TCE
CDH3-CD3-MSLN-CD3 TCE (SEQ ID NO 255), sequence (as listed by the source): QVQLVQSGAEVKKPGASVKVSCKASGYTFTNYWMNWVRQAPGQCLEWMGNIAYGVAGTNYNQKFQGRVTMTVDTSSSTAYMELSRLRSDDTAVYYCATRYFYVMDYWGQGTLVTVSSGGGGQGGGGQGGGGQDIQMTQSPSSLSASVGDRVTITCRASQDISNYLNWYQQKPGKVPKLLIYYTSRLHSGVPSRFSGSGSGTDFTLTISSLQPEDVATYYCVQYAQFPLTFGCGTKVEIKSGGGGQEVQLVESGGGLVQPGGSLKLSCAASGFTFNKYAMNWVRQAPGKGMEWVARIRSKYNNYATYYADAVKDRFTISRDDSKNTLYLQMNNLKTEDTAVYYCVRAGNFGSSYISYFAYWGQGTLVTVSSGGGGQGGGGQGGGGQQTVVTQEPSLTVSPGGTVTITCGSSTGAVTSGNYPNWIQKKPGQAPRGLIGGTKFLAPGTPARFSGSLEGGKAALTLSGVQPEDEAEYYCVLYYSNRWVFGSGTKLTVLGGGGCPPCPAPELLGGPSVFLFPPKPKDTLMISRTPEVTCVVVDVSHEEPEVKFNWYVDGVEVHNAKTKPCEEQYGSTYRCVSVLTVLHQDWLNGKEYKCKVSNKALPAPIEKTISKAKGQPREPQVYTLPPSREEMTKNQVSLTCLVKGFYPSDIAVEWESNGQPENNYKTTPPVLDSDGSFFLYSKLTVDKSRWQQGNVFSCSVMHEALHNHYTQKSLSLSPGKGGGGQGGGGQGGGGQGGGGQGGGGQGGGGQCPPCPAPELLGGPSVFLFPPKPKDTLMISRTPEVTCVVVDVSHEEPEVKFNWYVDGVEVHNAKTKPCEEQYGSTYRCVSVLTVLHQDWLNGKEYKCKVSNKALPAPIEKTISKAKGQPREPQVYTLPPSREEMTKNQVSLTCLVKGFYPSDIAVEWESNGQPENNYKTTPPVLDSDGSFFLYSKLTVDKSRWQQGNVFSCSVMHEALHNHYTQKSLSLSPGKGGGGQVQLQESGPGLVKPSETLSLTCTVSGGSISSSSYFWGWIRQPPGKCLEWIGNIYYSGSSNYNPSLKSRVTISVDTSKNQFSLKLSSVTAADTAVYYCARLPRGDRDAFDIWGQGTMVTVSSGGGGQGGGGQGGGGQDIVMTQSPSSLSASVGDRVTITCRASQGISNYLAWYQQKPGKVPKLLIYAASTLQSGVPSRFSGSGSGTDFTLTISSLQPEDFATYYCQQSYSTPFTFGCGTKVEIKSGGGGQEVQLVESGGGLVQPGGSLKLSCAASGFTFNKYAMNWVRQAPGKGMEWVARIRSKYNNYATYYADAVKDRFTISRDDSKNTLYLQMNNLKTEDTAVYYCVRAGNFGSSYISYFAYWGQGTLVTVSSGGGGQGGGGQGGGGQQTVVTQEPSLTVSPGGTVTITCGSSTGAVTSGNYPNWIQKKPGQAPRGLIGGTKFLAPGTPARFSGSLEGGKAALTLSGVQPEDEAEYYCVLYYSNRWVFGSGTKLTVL
Description: as §6, §7

[15] = tested on: CLDN6xCD3 TCE SEQ ID NO 340; experiment: SPR assay of immobilized peptides binding with TCE; conditions: immobilized peptide, Kinetic 1:1 Binding
Description: as §6, §7

## pGlu-DGTEELKGC ([pGlu]DGTEELKGC)
[1]; FLT3×CD3 TCE and STEAP1×CD3 TCE
  reduction in IC50 (FIG. 19): negative example
[2]
  ka: 4.81e+06 M⁻¹ s⁻¹
  kd: 0.0713 s⁻¹
[3]
  ka: 3.21e+06 M⁻¹ s⁻¹
  kd: 0.0285 s⁻¹
[4]
  ka: 2.09e+06 M⁻¹ s⁻¹
  kd: 0.0734 s⁻¹

## (pE-DGNEEMGKGMEENGDQC)4-PEG(20 kDa) ([pGlu]DGNEEMGKGMEENGDQC; also: four copies attached to PEG(20 kDa), site not given here)
[5]
  koff: 0.00195 s⁻¹
[6]
  elimination half-lives: ~102 min
[7]; 0.010 mg/kg CD20 TCE + 0.016 mg/kg (25×)
  IL-6 serum concentration: moderate increase in IL-6 serum concentration for n=1 of 2 animals
[7]; 0.010 mg/kg CD20 TCE + 0.16 mg/kg (250×)
  IL-6 stimulation: No IL-6 stimulation was observed
[7]; 0.010 mg/kg CD20 TCE IV
  difference in CD20 TCE cytolytic activity vs CD20 TCE control group: No apparent difference
[7]; 0.010 mg/kg CD20 TCE IV alone or in combination
  circulating CD20+ B lymphocytes: complete elimination
[7]; 4 hr, 250× combo group, 0.010 mg/kg CD20 TCE IV
  reduction in peak serum MCP-1: ~ 98%
[7]; CD20 TCE + 0.160 mg/kg, all time points, both animals
  TNF-α and IFN-γ: not detected above the assay LLOQ
[7]; any group
  IL-2 response: No detectable IL-2 response
[7]; co-administration with 0.010 mg/kg CD20 TCE, 20 day study
  T cell activation, early (CD69+) and late (CD25+) markers by flow cytometry: pronounced effect on T cell activation
[7]; combo groups relative to CD20 TCE monotherapy 0.010 mg/kg IV
  C-reactive protein (CRP): dose-dependent decrease in CRP

## (QDGNEEMGKGMEENGDQC)4 - PEG(20 kDa) (also: four copies conjugated to PEG 20 kDa)
[5]
  koff: 0.0047 s⁻¹
[8]
  terminal elimination half-lives: ~90 min
[9]
  PD effect with respect to CD19+ B cell depletion: retained a greater degree of PD effect
  impact on cytokine reduction: cytokine reduction can be seen
[10]
  terminal elimination half-life: ~88 min

## pE-DGNEELKGC (PEG)-NH2 [79674-1] ([pGlu]DGNEELKGC(PEG)-NH2; not fully specified; printed as pE-DGNEELKGC (PEG)-NH2; reading uncertain; also: PEG type and size not given here)
[11]; masking molecules of Example 12
  Affinity: High (an affinity indicated as Kd of about 0.05 to about 10 nM, typically 0.1 pM to 10 nM or 500 pM to 5 nM is considered of “high” affinity)
[11]; masking molecules tested with respect to TCE of SEQ ID NO 255 (Table 20)
  Affinity: High (an affinity indicated as Kd of about 0.05 to about 10 nM, typically 0.1 pM to 10 nM or 500 pM to 5 nM is considered of “high” affinity)
[12]
  inhibition activity against TCE cytotoxicity (FIG. 15): highest inhibition activity

## pGlu-DGEEELKGC (N-terminal pyroglutamate; VARIANT 1 Pyroglutamic acid)
[1]; solution competition
  IC50: 14.7 nM
[13]
  IC50: 28.6 nM
[14]; bivalent analyte model
  fast component for the off-rate: 0.236 s⁻¹
  fast component of the on-rate: 1.29e+06 M⁻¹ s⁻¹
[14]; immobilized peptide, SS Affinity model
  Kd: 72.5 nM
[15]
  ka: 3.81e+06 M⁻¹ s⁻¹
  kd: 0.0624 s⁻¹
[2]
  Kd: 20.5 nM
  ka: 2.64e+06 M⁻¹ s⁻¹
  kd: 0.0542 s⁻¹
[3]
  Kd: 7.3 nM
  ka: 4.04e+06 M⁻¹ s⁻¹
  kd: 0.0295 s⁻¹
[4]
  Kd: 27.4 nM
  ka: 3.04e+06 M⁻¹ s⁻¹
  kd: 0.0834 s⁻¹
